Results: US10111858B2, “Pharmaceutical for prophylaxis or treatment of hypertension” (Daiichi Sankyo Company, Limited, priority 2013, dated 2018)

What was measured:
Format in all cases: in vivo, rat
[1] = test system: Dahl rats (salt-sensitive hypertensive rats); assay: Combined administration of MR antagonist and diuretic: inhibitory action on proteinuria (Example 3); conditions: male Dahl rats, 8% salt diet, oral for 6 weeks, 24-hour urine collection on day 41; compound (Ia) 0.3 mg/kg, hydrochlorothiazide 1 mg/kg, alone or combined; mean±standard error
Method: (§1) Male Dahl rats (DIS/Eis [Dahl-Iwai S], SPF grade, supplier: Japan SLC, Inc., salt-sensitive hypertensive rats) at 7 weeks of age were divided into groups (6 or 9 rats per group).
(§2) In a normal group and a control group, 0.5% methyl cellulose solution was orally administered for 6 weeks, and in the other groups, a test substance was orally administered for 6 weeks. The test substance was suspended in 0.5% methyl cellulose solution and administered at a volume of 2 mL/kg. Additionally, in the groups other than the normal group, an 8% salt diet (FR-2 containing 8% NaCl, manufactured by Funabashi Farm Co., Ltd.) was given ad libitum from the start of administration of the test substance. The composition of the groups, the administered test substances [in the parentheses], and the number of rats (n) per group are as follows. […]
(§3) Systolic blood pressure was measured by using a noninvasive sphygmomanometer for rats and mice (BP-98A, Softron Co., Ltd.) during the trough period at the 6th week of administration of the test substance (on day 40 from the start of administration of the test substance). In addition, on day 41 from the start of administration of the test substance, urine collection for 24-hour was performed using a metabolic cage (2100-R, Watanabe Isolator Systems Co., Ltd.), and the daily urinary protein excretion per body weight was calculated.

[2] = test system: Dahl rats (salt-sensitive hypertensive rats); assay: Combined administration of MR antagonist and diuretic: inhibitory action on blood pressure elevation (Example 3); conditions: male Dahl rats, 8% salt diet, oral for 6 weeks, trough on day 40; compound (Ia) 0.3 mg/kg, hydrochlorothiazide 1 mg/kg, alone or combined; mean±standard error
Method: as §1, §2, §3

[3] = test system: Dahl rats (salt-sensitive hypertensive rats); assay: Combined administration of MR antagonist and angiotensin II receptor antagonist: inhibitory action on blood pressure elevation (Example 1); conditions: male Dahl rats, 8% salt diet, oral for 6 weeks, trough on day 42; compound (Ia) 1.0 mg/kg, olmesartan medoxomil 10 mg/kg, alone or combined; mean±standard error
Method: Male Dahl rats (DIS/Eis [Dahl-Iwai S], SPF grade, supplier: Japan SLC, Inc., salt-sensitive hypertensive rats) at 7 weeks of age were divided into groups (6 rats per group).
In a normal group and a control group, 0.5% methyl cellulose solution was orally administered for 6 weeks, and in the other groups, a test substance was orally administered for 6 weeks. The test substance was suspended in 0.5% methyl cellulose solution and administered at a volume of 2 mL/kg. Additionally, in the groups other than the normal group, an 8% salt diet (FR-2 containing 8% NaCl, manufactured by Funabashi Farm Co., Ltd.) was given ad libitum from the start of administration of the test substance. The composition of the groups and the administered test substances [in parentheses] are as follows.
Group 3: compound (Ia) administration group [compound (Ia) (1.0 mg/kg)]
Group 4: olmesartan medoxomil administration group [olmesartan medoxomil (10 mg/kg)]
Group 5: combined administration group [compound (Ia) (1.0 mg/kg)+olmesartan medoxomil (10 mg/kg)]
The results obtained by measuring systolic blood pressure using a noninvasive sphygmomanometer for rats and mice (BP-98A, Softron Co., Ltd.) during the trough period at the 6th week of administration of the test substance (on day 42 from the start of administration of the test substance) are shown in Table 1 (the values in the table represent mean±standard error).

[4] = test system: Dahl rats (salt-sensitive hypertensive rats); assay: Combined administration of MR antagonist and calcium antagonist: inhibitory action on blood pressure elevation (Example 2); conditions: male Dahl rats, 8% salt diet, oral for 6 weeks, trough on day 41; compound (Ia) 0.1 mg/kg, amlodipine 1 mg/kg, alone or combined; mean±standard error
Method: In a normal group and a control group, 0.5% methyl cellulose solution was orally administered for 6 weeks, and in the other groups, a test substance was orally administered for 6 weeks. The test substance was suspended in 0.5% methyl cellulose solution and administered at a volume of 2 mL/kg. Additionally, in the groups other than the normal group, an 8% salt diet (FR-2 containing 8% NaCl, manufactured by Funabashi Farm Co., Ltd.) was given ad libitum from the start of administration of the test substance. The composition of the groups, the administered test substances [ in parentheses], and the number of rats (n) per group are as follows.
Group 4: amlodipine administration group [amlodipine (1 mg/kg)] n=6

SMILES | Daily urinary protein excretion [1] | Systolic blood pressure [2] | Systolic blood pressure [3] | Systolic blood pressure [4]
NS(=O)(=O)c1cc2c(cc1Cl)NCNS2(=O)=O [hydrochlorothiazide, 6-chloro-3,4-dihydro-2H-1,2,4-benzothiadiazine-7-sulfonamide 1,1-dioxide, reference compound] | 320 ± 65 mg/kg/day | 212 ± 3 mmHg | – | –
Cc1c(C(=O)Nc2ccc(S(C)(=O)=O)cc2)cn(CCO)c1-c1ccccc1C(F)(F)F (atropisomer, axis not shown) [compound (Ia), (S)-1-(2-hydroxyethyl)-4-methyl-N-[4-(methylsulfonyl)phenyl]-5-[2-(trifluoromethyl)phenyl]-1H-pyrrole-3-carboxamide] | 190 ± 16 mg/kg/day | 196 ± 7 mmHg | 170 ± 4 mmHg | 207 ± 7 mmHg
